{"source": "patent US20240226041A1", "about": "“METHODS AND COMPOSITIONS FOR TREATMENT OF NEUROPATHIC PAIN USING STAT3 INHIBITORS” (priority 2021, published 2024)", "key": {"[1]": {"details": "28-day GLP studies; cited from earlier work"}, "C57BL/6 mice": {"test_system": "C57BL/6 mice", "experiment": "Example 3: mouse SNI model, pain behavior, barrier function, leukocyte infiltration, inflammatory mediators", "assay_type": "in vivo", "experimental": "SNI surgery is carried out in C57BL/6 mice as previously described. Analgesia is limited to perioperative administration of buprenorphine SR (0.05 mg/kg SQ). […] Animals then are examined for behavioral pain sensitivity. Plantar mechanical sensitivity is assessed using hind paw stimulation with von Frey filaments. Frequency of hindlimb withdrawal in response to application of filaments of increasing force is used as a readout of mechanical sensitivity. Plantar cold sensitivity is tested using the plantar cold assay, in which hindpaw withdrawal in response to a cooling source is used as a readout of cold sensitivity. Testing is carried out after habituation at baseline (prior to surgery), then once weekly for 8 weeks following surgery. Daily testing of von Frey and cold sensitivity is carried out during the TTI-101 treatment window. Additional behavioral testing occurs weekly to more extensively validate analgesic efficacy and functional recovery. The mechanical conflict-avoidance (MCA) test uses a chamber of blunt probes to measure aversion to hindpaw mechanical stimuli and serves as an additional assessment of mechanical sensitivity. Plantar cold sensitivity is measured using the thermal gradient ring assay, which uses a temperature gradient to measure temperature preference/aversion. Finally, paw placement and other gait parameters are assessed using digital gait analysis (Catwalk XT) and a burrowing activity assay (spontaneous clearing of bedding material from a tube). […] All experiments are performed by observers blinded to the genotype and drug formulation administered. This additional behavioral testing is done from baseline (8 weeks)—prior to nerve injury—then weekly thereafter until 16 weeks of age. Mice are euthanized humanely by cardiac puncture and necropsy performed to remove the contralateral and ipsilateral sciatic nerves (SN) and dorsal root ganglia (DRG). […] Anticoagulated blood at both time points is used to measure levels of pro- and anti-inflammatory cytokines, including IL-4, IL-6, IL-10, IL-13, TGF-β and IFN-γ by Luminex. One portion of each SN and DRG is snap-frozen and another portion placed in formalin, then paraffin imbedded (FFPE). Cryotome sections of snap-frozen tissues are used to generate protein lysates for measurement of pY-STAT3, IL-1B and IL-6 by Luminex and Western blotting. […] Snap-frozen tissues are processed to isolate RNA for RNA sequencing (RNA-seq) analysis. Microtome sections of FFPE blocks are H&E stained and undergo immunohistochemistry staining and scoring for pY-STAT3, CD68 (macrophages), PGP9.5 (sensory nerves) and GAP43 (regenerating nerves). Detection of oxidative stress in sciatic nerve and DRG via IHC for nitrotyrosine, 4-hydroxynonenal and MnSOD is carried out. Vascular endothelium permeability in nerve is determined by quantifying the extravasation of the fluorescent dye sodium fluorescein. Cross-sections of the nerve are quantified using the EVOS fluorescence microscope, and mean fluorescence intensity and the percent area positive are determined using NIH ImageJ software. In a subset of mice, characterization of SN and DRG macrophage phenotype are analyzed using flow cytometry with conjugated antibodies against CD86, F4/80, CD163 and CD206."}, "[2]": {"test_system": "bone marrow-derived macrophages (BMDM)", "experiment": "Example 5: bone marrow-derived macrophage inflammation and ROS production after STAT3 activation", "assay_type": "cell-based", "details": "pre-incubation 0, 1, 3, 10, and 30 μM for one hour before Ang II or cytokines", "experimental": "STAT3 is activated within BMDM in vitro by addition of Ang II (0.1-1 μM for 24 h), or using a cocktail of inflammatory mediators. […] The % of F4/80+ macrophages containing elevated levels of the fluorescent ROS-sensitive dye DCFDA is analyzed. The levels of pY-STAT3 in BMDM are determined. The BMDM cytokine expression pattern at the end of the culture period is assessed by intracellular fluorescence for cytosolic IL-10, IL-4, TNF-a and IL-1b."}, "sciatic nerves": {"test_system": "sciatic nerves", "experiment": "Bulk RNA-sequencing of sciatic nerves of SNI mice", "assay_type": "in vivo, mouse", "details": "single dose 50 mg/kg i.p., 5 hours", "experimental": "5 hours later, sciatic nerves were isolated for bulk RNA-sequencing."}, "male C57BL/6 mice": {"test_system": "male C57BL/6 mice", "experiment": "Mechanical sensitivity (von Frey) in mice given TTI-101 alone", "assay_type": "in vivo, mouse", "details": "50 mg/kg i.p. every other day, 7 doses", "experimental": "Data were analyzed by two-way ANOVA repeated measures. Time: P<0.001; Group: P<0.001; Interaction P<0.001. **P<0.01 Tukey multiple comparison test. Data are from a representative experiment out of two with similar results.\nPeripheral neuropathy has been observed with several small-molecule STAT3 inhibitors in clinical-stage development (Bendell et al., 2014; Genini et al., 2017; Ogura et al., 2015). […] This model was selected because it was shown previously that it is mediated by mitochondrial damage in the peripheral nervous system (Krukowski et al., 2017; Maj, Ma, Krukowski, Kavelaars & Heijnen, 2017). […] (FIG. 12).\nPain measurements and chemotherapy-induced peripheral neuropathy (CIPN)."}, "rats": {"test_system": "rats", "details": "rat, in vivo; cited from earlier work"}, "mice": {"test_system": "mice", "experiment": "Example 6: mouse chronic constriction injury (CCI) model", "assay_type": "in vivo", "experimental": "CCI surgery is carried out in mice. Analgesia is limited to perioperative administration of buprenorphine SR (0.05 mg/kg SQ). […] Animals then are examined for behavioral pain sensitivity. All experiments are performed by observers blinded to the drug formulation administered. This is done from baseline (8 weeks)—prior to nerve injury—then weekly thereafter until 16 weeks of age. […] Anticoagulated blood is used to measure levels of pro- and anti-inflammatory cytokines. One portion of each SN and DRG is snap-frozen and another portion placed in formalin, then paraffin imbedded (FFPE). Cryotome sections of the snap-frozen tissue are used to generate protein lysates for measurement of pY-STAT3, IL-1B, and IL-6 by Luminex, and RNA for RNA-seq analysis. […] Microtome sections of FFPE blocks are H&E stained and undergo immunohistochemistry staining and scoring for pY-STAT3, CD68 (macrophages), PGP9.5 (sensory nerves) and GAP43 (regenerating nerves). Detection of oxidative stress in sciatic nerve and DRG via IHC for nitrotyrosine or 4-hydroxynonenal adducts and MnSOD is carried out. In a subset of mice, characterization of SN and DRG macrophage phenotype is analyzed using flow cytometry with conjugated antibodies against CD86, F4/80, CD163 and CD206."}, "[3]": {"details": "100 mg/kg oral gavage daily for 5 days"}}, "note": "“Also recorded” adds a separate entry of the source.", "data": [{"smiles": "COc1ccc(S(=O)(=O)Nc2cc(-c3c(O)ccc4ccccc34)c(O)c3ccccc23)cc1", "note": "[TTI-101]", "values": [{"measurement": "drug-related toxicity", "setting": "[1]", "value": "no drug-related toxicity up to the maximum dose administered"}, {"measurement": "antalgic gait patterns/burrowing aversion", "setting": "C57BL/6 mice; [3]", "value": "net reduction"}, {"measurement": "macrophage infiltration of SN and DRG", "setting": "C57BL/6 mice; [3]", "value": "net reduction"}, {"measurement": "mechanical and cold hypersensitivity", "setting": "C57BL/6 mice; [3]", "value": "net reduction"}, {"measurement": "plasma and tissue levels / pY-STAT3 in macrophages in SN and DRG", "setting": "C57BL/6 mice; [3]", "value": "achieves levels in the plasma and tissue adequate to reduce levels of pY-STAT3"}, {"measurement": "RNA-seq gene signatures", "setting": "C57BL/6 mice; SN and DRG", "value": "shifts RNA-seq gene signatures toward a net promotion of M2-like macrophage polarization, improved tight junction/barrier formation, reduced ROS production, and circulating pro-inflammatory markers"}, {"measurement": "oxidative stress/pro-inflammatory phenotype of BMDM after STAT3 activation", "setting": "[2]", "value": "reverses this oxidative stress/pro-inflammatory phenotype"}, {"measurement": "genes significantly upregulated in sciatic nerve", "setting": "sciatic nerves; adjusted p=<0.05", "value": 41, "unit": "genes"}, {"measurement": "genes significantly downregulated in sciatic nerve", "setting": "sciatic nerves; p=<0.05", "value": 148, "unit": "genes"}, {"measurement": "mechanical sensitivity / mechanical allodynia caused by compound alone", "setting": "male C57BL/6 mice", "value": "had no effect on mechanical sensitivity; also recorded: does not cause mechanical allodynia"}, {"measurement": "serious toxicity including lactic acidosis", "setting": "rats", "value": "did not demonstrate any serious toxicity including lactic acidosis"}, {"measurement": "antalgic gait patterns/burrowing aversion", "setting": "mice; [3]", "value": "net reduction"}, {"measurement": "macrophage infiltration of the sciatic nerve", "setting": "mice; [3]", "value": "net reduction"}, {"measurement": "mechanical and thermal hypersensitivity", "setting": "mice; [3]", "value": "net reduction"}, {"measurement": "plasma and tissue levels / pY-STAT3 in macrophages in SN and DRG", "setting": "mice; [3]", "value": "achieves levels in the plasma and tissue adequate to reduce levels of pY-STAT3"}, {"measurement": "pain hyper-sensitivity at 8 weeks post-CCI", "setting": "mice; 8 weeks post-CCI", "value": "sustained reversal"}]}]}
